Tests used:
[1] = system: antibodies in sera from SARS patients (sera 1a, 1b, 2, 6, 37, 62, London, SARS-yellow, SARS-green); type: binding, human; design: Binding of serum 6 to linear peptides of protein X1 of SARS-CoV Urbani / Binding of serum 37 to linear peptides of protein X1 of SARS-CoV Urbani / Binding of serum 6 to looped/cyclic peptide (PEPSCAN-ELISA) / Binding of serum 37 to looped/cyclic peptide (PEPSCAN-ELISA) / Binding of serum 37 to looped/cyclic peptides of protein X1 of SARS-CoV Urbani / Binding of serum 6 to linear peptides of protein X2 / Binding of serum 37 to linear peptides of protein X2 / Binding of serum 37 to looped/cyclic peptides of protein X2 of SARS-CoV Urbani / Binding of serum 6 to linear peptides of protein M of SARS-CoV Urbani / Binding of serum 37 to linear peptides of protein M of SARS-CoV Urbani / Binding of serum 6 to looped/cyclic peptides of protein M of SARS-CoV Urbani / Binding of serum 37 to looped/cyclic peptides of protein M of SARS-CoV Urbani / Binding of serum 6 to linear peptides of protein X3 of SARS-CoV Urbani / Binding of serum 37 to linear peptides of protein X3 of SARS-CoV Urbani / Binding of serum 37 to looped/cyclic peptides of protein X3 of SARS-CoV Urbani / Binding of serum 6 to linear peptides of protein X4 of SARS-CoV Urbani / Binding of serum 37 to linear peptides of protein X4 of SARS-CoV Urbani / Binding of serum 37 to looped/cyclic peptides of protein X4 of SARS-CoV Urbani / Binding of serum 6 to linear peptides of protein X5 of SARS-CoV Urbani / Binding of serum 37 to linear peptides of protein X5 of SARS-CoV Urbani / Binding of serum 37 to looped/cyclic peptides of protein X5 of SARS-CoV Urbani / Binding of serum 6 to linear peptides of protein N of SARS-CoV Urbani / Binding of serum 37 to linear peptides of protein N of SARS-CoV Urbani / Binding of serum 6 to linear peptide (PEPSCAN-ELISA) / Binding of serum 1a to looped/cyclic peptides of protein N of SARS-CoV Urbani / Binding of serum 1b to looped/cyclic peptides of protein N of SARS-CoV Urbani / Binding of serum 2 to looped/cyclic peptides of protein N of SARS-CoV Urbani / Binding of serum 6 to looped/cyclic peptides of protein N of SARS-CoV Urbani / Binding of serum 37 to looped/cyclic peptides of protein N of SARS-CoV Urbani / Binding of serum 62 to looped/cyclic peptides of protein N of SARS-CoV Urbani / Binding of serum London to looped/cyclic peptides of protein N of SARS-CoV Urbani / Binding of serum SARS-green to looped/cyclic peptides of protein N of SARS-CoV Urbani: unit not given here
[2] = system: control sera (pooled serum of ten healthy LUMC hospital workers; commercial negative donor pooled serum from the Dutch bloodbank); type: binding, human; design: Binding of Control serum LUMC to linear peptides / Binding of Control serum Blood-bank to linear peptides / Binding of Control serum LUMC to looped peptides / Binding of Control Serum Blood-Bank to Looped peptides / Binding of Control serum LUMC to linear peptides of the protein M of SARS-CoV Urbani / Binding of Control serum Blood-bank to linear peptides of the protein M of SARS-CoV Urbani / Binding of Control serum LUMC to looped peptides of the protein M of SARS-CoV Urbani / Binding of Control Serum Blood-Bank to Looped peptides of the protein M of SARS-CoV Urbani: unit not given here
[3] = system: rabbit serum obtained by immunizing a rabbit with the SARS-CoV strain Frankfurt 1; type: binding; design: Binding of a rabbit serum to linear peptides / Binding of a rabbit serum to looped peptides / Rabbit serum linear peptides / Rabbit serum looped peptides / Binding of a rabbit serum to linear peptides of protein N of SARS-CoV Urbani (Rabbit serum linear peptides) / Binding of a rabbit serum to looped/cyclic peptides of protein N of SARS-CoV Urbani (Rabbit serum looped peptides): unit not given here

## EEVQQELYSPLFLIV
[1]
  Binding of serum 1a to linear peptides of protein X4 of SARS-CoV Urbani: 0.7
  Binding of serum 1b to linear peptides of protein X4 of SARS-CoV Urbani: 0.6
  Binding of serum 2 to linear peptides of protein X4 of SARS-CoV Urbani: 0.6
  Binding of serum 6 to linear peptides of protein X4 of SARS-CoV Urbani: 0.6
  Binding of serum 37 to linear peptides of protein X4 of SARS-CoV Urbani: 0.7
  Binding of serum 62 to linear peptides of protein X4 of SARS-CoV Urbani: 0.8
  Binding of serum London to linear peptides of protein X4 of SARS-CoV Urbani: 0.7
  Binding of serum SARS-green to linear peptides of protein X4 of SARS-CoV Urbani: 0.7
  Binding of serum SARS-yellow to linear peptides of protein X4 of SARS-CoV Urbani: 0.8
  Recognition of the peptide by sera of SARS-CoV infected individuals, and form (linear, looped/cyclic) in which it is recognized: recognized in looped/cyclic form
[2]
  Binding of Control Serum Blood-Bank to Looped peptides: 1.0
  Binding of Control serum Blood-bank to linear peptides: 0.6
  Binding of Control serum LUMC to linear peptides: 0.6
  Binding of Control serum LUMC to looped peptides: 1.0
[3]
  Rabbit serum linear peptides: 0.4
  Rabbit serum looped peptides: 0.5

## EGDGISTPKLKEDYQ
[1]
  Binding of serum 1a to linear peptides of protein X1 of SARS-CoV Urbani: 0.6
  Binding of serum 1a to looped/cyclic peptides of protein X1 of SARS-CoV Urbani: 0.4
  Binding of serum 1b to linear peptides of protein X1 of SARS-CoV Urbani: 0.3
  Binding of serum 1b to looped/cyclic peptides of protein X1 of SARS-CoV Urbani: 0.3
  Binding of serum 2 to linear peptides of protein X1 of SARS-CoV Urbani: 0.6
  Binding of serum 2 to looped/cyclic peptides of protein X1 of SARS-CoV Urbani: 0.2
  Binding of serum 6 to linear peptides of protein X1 of SARS-CoV Urbani: 0.3
  Binding of serum 6 to looped/cyclic peptides of protein X1 of SARS-CoV Urbani: 0.2
  Binding of serum 37 to linear peptides of protein X1 of SARS-CoV Urbani: 0.5
  Binding of serum 37 to looped/cyclic peptides of protein X1 of SARS-CoV Urbani: 0.3
  Binding of serum 62 to linear peptides of protein X1 of SARS-CoV Urbani: 0.4
  Binding of serum 62 to looped/cyclic peptides of protein X1 of SARS-CoV Urbani: 0.3
  Binding of serum London to linear peptides of protein X1 of SARS-CoV Urbani: 0.3
  Binding of serum London to looped/cyclic peptides of protein X1 of SARS-CoV Urbani: 0.2
  Binding of serum SARS-green to linear peptides of protein X1 of SARS-CoV Urbani: 0.2
  Binding of serum SARS-green to looped/cyclic peptides of protein X1 of SARS-CoV Urbani: 0.2
  Binding of serum SARS-yellow to linear peptides of protein X1 of SARS-CoV Urbani: 0.2
  Binding of serum SARS-yellow to looped/cyclic peptides of protein X1 of SARS-CoV Urbani: 0.1
[2]
  Binding of Control Serum Blood-Bank to Looped peptides: 0.4
  Binding of Control serum Blood-bank to linear peptides: 0.2
  Binding of Control serum LUMC to linear peptides: 0.3
  Binding of Control serum LUMC to looped peptides: 0.4
[3]
  Binding of a rabbit serum to linear peptides: 0.1
  Binding of a rabbit serum to looped peptides: 0.4

## EITVATSRTLSYYKL
[1]
  Binding of serum 1a to linear peptides of protein M of SARS-CoV Urbani: 0.7
  Binding of serum 1a to looped/cyclic peptides of protein M of SARS-CoV Urbani: 0.6
  Binding of serum 1b to linear peptides of protein M of SARS-CoV Urbani: 0.5
  Binding of serum 1b to looped/cyclic peptides of protein M of SARS-CoV Urbani: 0.4
  Binding of serum 2 to linear peptides of protein M of SARS-CoV Urbani: 0.6
  Binding of serum 2 to looped/cyclic peptides of protein M of SARS-CoV Urbani: 0.5
  Binding of serum 6 to linear peptides of protein M of SARS-CoV Urbani: 0.4
  Binding of serum 6 to looped/cyclic peptides of protein M of SARS-CoV Urbani: 0.5
  Binding of serum 37 to linear peptides of protein M of SARS-CoV Urbani: 0.8
  Binding of serum 37 to looped/cyclic peptides of protein M of SARS-CoV Urbani: 0.5
  Binding of serum 62 to linear peptides of protein M of SARS-CoV Urbani: 0.9
  Binding of serum 62 to looped/cyclic peptides of protein M of SARS-CoV Urbani: 0.5
  Binding of serum London to linear peptides of protein M of SARS-CoV Urbani: 0.3
  Binding of serum London to looped/cyclic peptides of protein M of SARS-CoV Urbani: 0.2
  Binding of serum SARS-green to linear peptides of protein M of SARS-CoV Urbani: 0.4
  Binding of serum SARS-green to looped/cyclic peptides of protein M of SARS-CoV Urbani: 0.3
  Binding of serum SARS-yellow to linear peptides of protein M of SARS-CoV Urbani: 0.1
  Binding of serum SARS-yellow to looped/cyclic peptides of protein M of SARS-CoV Urbani: 0.5
[2]
  Binding of Control Serum Blood-Bank to Looped peptides of the protein M of SARS-CoV Urbani: 0.7
  Binding of Control serum Blood-bank to linear peptides of the protein M of SARS-CoV Urbani: 0.7
  Binding of Control serum LUMC to linear peptides of the protein M of SARS-CoV Urbani: 0.4
  Binding of Control serum LUMC to looped peptides of the protein M of SARS-CoV Urbani: 0.6
[3]
  Rabbit serum linear peptides: 0.7
  Rabbit serum looped peptides: 0.1

## ELLIQQWIQFMMSRR
[1]
  Binding of serum 1a to linear peptides of protein X2: 0.7
  Binding of serum 1a to looped/cyclic peptides of protein X2 of SARS-CoV Urbani: 0.5
  Binding of serum 1b to linear peptides of protein X2: 0.5
  Binding of serum 1b to looped/cyclic peptides of protein X2 of SARS-CoV Urbani: 0.4
  Binding of serum 2 to linear peptides of protein X2: 0.4
  Binding of serum 2 to looped/cyclic peptides of protein X2 of SARS-CoV Urbani: 0.5
  Binding of serum 6 to linear peptides of protein X2: 0.3
  Binding of serum 6 to looped/cyclic peptides of protein X2 of SARS-CoV Urbani: 0.3
  Binding of serum 37 to linear peptides of protein X2: 0.6
  Binding of serum 37 to looped/cyclic peptides of protein X2 of SARS-CoV Urbani: 0.5
  Binding of serum 62 to linear peptides of protein X2: 0.6
  Binding of serum 62 to looped/cyclic peptides of protein X2 of SARS-CoV Urbani: 0.6
  Binding of serum London to linear peptides of protein X2: 0.4
  Binding of serum London to looped/cyclic peptides of protein X2 of SARS-CoV Urbani: 0.2
  Binding of serum SARS-green to linear peptides of protein X2: 0.6
  Binding of serum SARS-green to looped/cyclic peptides of protein X2 of SARS-CoV Urbani: 0.4
  Binding of serum SARS-yellow to linear peptides of protein X2: 0.8
  Binding of serum SARS-yellow to looped/cyclic peptides of protein X2 of SARS-CoV Urbani: 0.4
[2]
  Binding of Control Serum Blood-Bank to Looped peptides: 0.6
  Binding of Control serum Blood-bank to linear peptides: 0.5
  Binding of Control serum LUMC to linear peptides: 0.4
  Binding of Control serum LUMC to looped peptides: 0.5
[3]
  Binding of a rabbit serum to linear peptides: 0.4
  Binding of a rabbit serum to looped peptides: 0.4

## ELVIGAVIIRGHLRM
[1]
  Binding of serum 1a to linear peptides of protein M of SARS-CoV Urbani: 0.8
  Binding of serum 1a to looped/cyclic peptides of protein M of SARS-CoV Urbani: 0.8
  Binding of serum 1b to linear peptides of protein M of SARS-CoV Urbani: 0.6
  Binding of serum 1b to looped/cyclic peptides of protein M of SARS-CoV Urbani: 0.4
  Binding of serum 2 to linear peptides of protein M of SARS-CoV Urbani: 0.7
  Binding of serum 2 to looped/cyclic peptides of protein M of SARS-CoV Urbani: 0.7
  Binding of serum 6 to linear peptides of protein M of SARS-CoV Urbani: 0.3
  Binding of serum 6 to looped/cyclic peptides of protein M of SARS-CoV Urbani: 0.7
  Binding of serum 37 to linear peptides of protein M of SARS-CoV Urbani: 0.8
  Binding of serum 37 to looped/cyclic peptides of protein M of SARS-CoV Urbani: 0.7
  Binding of serum 62 to linear peptides of protein M of SARS-CoV Urbani: 0.8
  Binding of serum 62 to looped/cyclic peptides of protein M of SARS-CoV Urbani: 0.6
  Binding of serum London to linear peptides of protein M of SARS-CoV Urbani: 0.3
  Binding of serum London to looped/cyclic peptides of protein M of SARS-CoV Urbani: 0.2
  Binding of serum SARS-green to linear peptides of protein M of SARS-CoV Urbani: 0.3
  Binding of serum SARS-green to looped/cyclic peptides of protein M of SARS-CoV Urbani: 0.3
  Binding of serum SARS-yellow to linear peptides of protein M of SARS-CoV Urbani: 0.1
  Binding of serum SARS-yellow to looped/cyclic peptides of protein M of SARS-CoV Urbani: 0.6
[2]
  Binding of Control Serum Blood-Bank to Looped peptides of the protein M of SARS-CoV Urbani: 0.7
  Binding of Control serum Blood-bank to linear peptides of the protein M of SARS-CoV Urbani: 0.7
  Binding of Control serum LUMC to linear peptides of the protein M of SARS-CoV Urbani: 0.5
  Binding of Control serum LUMC to looped peptides of the protein M of SARS-CoV Urbani: 0.6
[3]
  Rabbit serum linear peptides: 0.8
  Rabbit serum looped peptides: 0.1

From patent US20070128217A1 (priority 2003, published 2007)
